One data set deals with Cytochrome P450 2C19 (Homo sapiens, UniProt P33261). The data set is described as follows: Inhibition of CYP2C19 in human liver microsomes using S-mephenytoin as substrate measured after 10 mins by LC-MS/MS analysis. The data set is classed as ADME.
For data set [1], the system named is Toxoplasma gondii. Kind of data set: Antiparasitic activity against type 2 Toxoplasma gondii ME49 tachyzoites infected in HFF assessed as reduction in parasite growth. The data set is classed as functional, organism-based.
For data set [2], the system named is Toxoplasma gondii. The data set is described as follows: Antiparasitic activity against type 1 Toxoplasma gondii RH tachyzoites infected in CD1 mouse assessed as reduction in mouse death at 15 mg/kg, po administered four times daily via gavage for 7 days by bioluminescence assay. The data set is classed as functional, organism-based.
Data set [3] can be described thus: Kinetic solubility of the compound in pH 7.4 phosphate buffer measured after 24 hrs by UV-HPLC analysis. The data set is classed as physicochemical. Conditions: pH 7.4, 24 h.
Data set [4] deals with Toxoplasma gondii. Kind of data set: Protection against reactivation of type 2 Toxoplasma gondii ME49 infection in sulfadiazin-treated Ifngr1-/- CD1 mouse assessed as increase in mouse survival at 60 to 120 mg/kg, po administered twice daily via gavage for 8 days measured up to 30 days. The format is functional, organism-based.
Another data set concerns the target MAP4K4 (Homo sapiens, UniProt O95819). Kind of data set: Inhibition of recombinant human GST-tagged MAP4K4 catalytic domain expressed in baculovirus expression system at 1 uM by Lanthascreen assay relative to control. A general note: TR-FRET usually uses a lanthanide donor and a delayed reading to cut background.

As usually defined, the EC50 is the concentration at which the effect is half-maximal. The term inhibition denotes the change of the read-out against control, counted positive when it falls.

Activity calls are given as the source filed them. No cut-off for these calls is given here. Bounds are passed on as bounds.

Sequence of Cytochrome P450 2C19 (P33261 whole entry): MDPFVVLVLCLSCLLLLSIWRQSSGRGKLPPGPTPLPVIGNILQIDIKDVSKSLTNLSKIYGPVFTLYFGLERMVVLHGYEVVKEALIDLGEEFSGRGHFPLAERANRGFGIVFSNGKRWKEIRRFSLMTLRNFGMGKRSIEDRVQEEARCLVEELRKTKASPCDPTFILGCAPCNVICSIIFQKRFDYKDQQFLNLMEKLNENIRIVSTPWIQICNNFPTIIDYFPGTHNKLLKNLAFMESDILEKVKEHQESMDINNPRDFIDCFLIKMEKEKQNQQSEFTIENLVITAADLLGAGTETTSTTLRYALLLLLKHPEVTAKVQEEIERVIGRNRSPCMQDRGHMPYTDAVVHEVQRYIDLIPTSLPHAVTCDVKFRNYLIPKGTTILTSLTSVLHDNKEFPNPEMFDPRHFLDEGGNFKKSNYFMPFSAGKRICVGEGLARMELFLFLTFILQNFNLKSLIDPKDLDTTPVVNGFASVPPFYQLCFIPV
Sequence of MAP4K4 (O95819 whole entry, the tested form may be a part): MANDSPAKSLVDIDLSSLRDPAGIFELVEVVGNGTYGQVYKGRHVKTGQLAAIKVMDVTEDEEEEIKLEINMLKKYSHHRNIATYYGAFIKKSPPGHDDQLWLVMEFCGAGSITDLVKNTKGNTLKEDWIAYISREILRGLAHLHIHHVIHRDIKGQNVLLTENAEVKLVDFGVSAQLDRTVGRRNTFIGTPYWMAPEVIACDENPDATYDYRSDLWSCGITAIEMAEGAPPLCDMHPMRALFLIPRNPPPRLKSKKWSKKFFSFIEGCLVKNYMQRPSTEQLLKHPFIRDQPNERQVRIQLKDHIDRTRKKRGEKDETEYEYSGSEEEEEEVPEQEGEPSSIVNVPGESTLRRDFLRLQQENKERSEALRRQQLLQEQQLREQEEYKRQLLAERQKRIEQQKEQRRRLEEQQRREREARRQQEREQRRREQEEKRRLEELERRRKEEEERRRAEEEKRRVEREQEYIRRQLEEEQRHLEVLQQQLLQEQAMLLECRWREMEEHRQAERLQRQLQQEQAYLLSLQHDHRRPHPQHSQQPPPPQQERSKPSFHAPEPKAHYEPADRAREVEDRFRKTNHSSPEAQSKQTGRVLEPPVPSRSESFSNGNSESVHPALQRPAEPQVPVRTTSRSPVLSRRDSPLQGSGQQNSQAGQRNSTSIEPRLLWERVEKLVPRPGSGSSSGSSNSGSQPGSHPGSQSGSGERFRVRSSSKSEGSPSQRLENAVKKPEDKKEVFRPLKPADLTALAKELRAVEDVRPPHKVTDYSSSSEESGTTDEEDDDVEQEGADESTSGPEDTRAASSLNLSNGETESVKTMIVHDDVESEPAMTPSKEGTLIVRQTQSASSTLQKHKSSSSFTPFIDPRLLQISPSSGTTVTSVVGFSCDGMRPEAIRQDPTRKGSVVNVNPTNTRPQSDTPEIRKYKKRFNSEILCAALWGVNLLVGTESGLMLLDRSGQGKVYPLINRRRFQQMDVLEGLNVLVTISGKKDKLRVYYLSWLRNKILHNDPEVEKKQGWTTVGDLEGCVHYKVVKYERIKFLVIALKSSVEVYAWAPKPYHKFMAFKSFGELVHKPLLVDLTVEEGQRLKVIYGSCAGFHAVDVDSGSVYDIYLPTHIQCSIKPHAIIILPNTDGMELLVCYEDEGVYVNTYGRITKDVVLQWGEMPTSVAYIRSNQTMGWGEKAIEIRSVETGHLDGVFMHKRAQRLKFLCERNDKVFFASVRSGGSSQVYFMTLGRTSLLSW

`Nc1ncnc2c1c(Oc1cc(C(F)(F)F)ccn1)nn2C1CC1`: the EC50 came out at 5.78 µM on Cytochrome P450 2C19 and 0.26 µM in the data set with Toxoplasma gondii [1]. Moreover, the result with Toxoplasma gondii [2] and with Toxoplasma gondii [4] was Active. The compound further yielded a Kinetic_solubility in data set [3] of 191 µM. For the same compound, the inhibition at 1 µM on MAP4K4 was more than 50%.

These data come from ChEMBL document CHEMBL4602732, “Optimizing Pyrazolopyrimidine Inhibitors of Calcium Dependent Protein Kinase 1 for Treatment of Acute and Chronic Toxoplasmosis” (J Med Chem, 2020).
